Reference: publication PMC10357944 (RSC Medicinal Chemistry, 2023)

How the values were obtained:
[1] = Mammalian toxicity in vitro, MTT colorimetric method; assay type: cell-based, Murine; conditions: mouse, NCTC clone 929 fibroblasts, pH 7.2, NCTC clone 929 cells, up to 200 μM
Procedure: The synthesized compounds were evaluated for their anti-L. (L.) infantum activity on intracellular amastigotes following 96 h treatment, with standard drug miltefosine used as a control. […] Leishmania (L.) infantum (MHOM/BR/1972/LD) amastigotes were obtained by differential centrifugation from golden hamsters (Mesocricetus auratus) spleens with 60–70 days of infection and the number of parasites was determined by the Stauber method.[18] Murine conjunctive fibroblasts NCTC clone 929 (ATCC) were maintained in RPMI-1640 medium supplemented with 10% FBS at pH 7.2 and 37 °C in a humidified incubator with 5% CO2. Peritoneal macrophages were by obtained by washing the peritoneal cavity of BALB/c mice with RPMI-1640 medium supplemented with 10% FBS, pH 7.2 and maintained at 37 °C in a humidified incubator with 5% CO2. NCTC cells (6 × 10^4/well) were added to 96-well plates and maintained at 37 °C in a 5% CO2 humidified incubator for 96 h with compounds serially diluted (1.6 to 200 μM). […] The determination of CC50 and IC50 values was performed by sigmoid dose–response curves using the Graph Pad Prism 5 software. The samples were tested in duplicate and the assays were reproduced at least twice.

[2] = system: Leishmania (L.) infantum intracellular amastigotes; assay: Anti-L. (L.) infantum activity in vitro, intracellular amastigotes in peritoneal macrophages, infection index; assay type: cell-based; conditions: L. (L.) infantum intracellular amastigotes in BALB/c peritoneal macrophages, 96 h treatment, NA = inactive
Procedure: The synthesized compounds were evaluated for their anti-L. (L.) infantum activity on intracellular amastigotes following 96 h treatment, with standard drug miltefosine used as a control. […] Leishmania (L.) infantum (MHOM/BR/1972/LD) amastigotes were obtained by differential centrifugation from golden hamsters (Mesocricetus auratus) spleens with 60–70 days of infection and the number of parasites was determined by the Stauber method.[18] Murine conjunctive fibroblasts NCTC clone 929 (ATCC) were maintained in RPMI-1640 medium supplemented with 10% FBS at pH 7.2 and 37 °C in a humidified incubator with 5% CO2. Peritoneal macrophages were by obtained by washing the peritoneal cavity of BALB/c mice with RPMI-1640 medium supplemented with 10% FBS, pH 7.2 and maintained at 37 °C in a humidified incubator with 5% CO2. Peritoneal macrophages (1 × 10^5/well) were added in 16-well slide chambers (NUNC) and incubated overnight at 37 °C with 5% CO2. Subsequently, the cells were infected with L. (L.) infantum amastigotes (10 : 1 amastigotes/macrophage) for 24 h, treated with compounds serially diluted (6.25 to 50 μM) and incubated for 96 h at 37 °C with 5% CO2. Miltefosine was used as standard drug and untreated cells as a negative control. Slides were fixed with methanol, stained with Giemsa and observed under a light microscope.[19] […] The determination of CC50 and IC50 values was performed by sigmoid dose–response curves using the Graph Pad Prism 5 software. The samples were tested in duplicate and the assays were reproduced at least twice.

T. cruzi trypomastigotes = system: T. cruzi trypomastigotes; design: method as in our previous work; conditions: ref our previous work; cited from earlier work

Row | IC50 ([2]; Peritoneal macrophage, 96 h) [µM] | SMILES | CC50 at 96 h [1] [µM] | further results
1 | 4.1 ± 1.1 | C=CCc1ccc(Oc2cc(CC=C)cc(OC)c2OCCN2CCCC2)c(OC)c1 [Compound 4] | 24.9 ± 2.6 | 
2 | 9.7 ± 2 | C=CCc1cc(OC)c(OCc2ccc(OC)cc2)c(Oc2ccc(CN3CCOCC3)cc2OC)c1 [Compound 24] | > 200 | 
3 |  | CCCc1ccc(Oc2cc(CCC)cc(OC)c2OCc2ccc(OC)cc2)c(OC)c1 [Compound 22] | > 200 | 
4 | ~3 | CCCc1ccc(Oc2cc(CN3CCCCC3)cc(OC)c2OCc2ccc(OC)cc2)cc1 [Compound 33] | 22.7 ± 0.9 | 
5 |  | C=CCc1ccc(Oc2cccc(OC)c2OCc2ccc(OC)cc2)c(OC)c1 [Compound 10] | > 200 | 
6 |  | C=CCc1cc(OC)c(O)c(Oc2ccc(CN3CCCC3)cc2OC)c1 [Compound 32] | 43.3 ± 5.3 | IC50 (μM) ± SD [2]: no anti-parasitic activity
7 | 16.4 ± 4.3 | CCCc1ccc(Oc2cc(CN3CCOCC3)cc(OC)c2OCc2ccc(OC)cc2)c(OC)c1 [Compound 28] | > 200 | 
8 | 24.2 ± 18.2 | C=CCc1cc(OC)c(OCc2ccc(OC)cc2)c(Oc2ccccc2OC)c1 [Compound 9] | > 200 | 
9 | 7.7 ± 0.8 | CCCc1cc(OC)c(OCc2ccc(OC)cc2)c(Oc2ccc(CN3CCOCC3)cc2OC)c1 [Compound 25] | 74.4 ± 4.4 | 
10 | 9.6 ± 3.6 | C=CCc1ccc(Oc2cc(CC=C)cc(OC)c2OCCN2CCOCC2)c(OC)c1 [Compound 5] | 63.7 ± 0.2 | 
11 |  | C=CCc1ccc(Oc2cc(CC=C)cc(OC)c2OCC(=O)N2CCOCC2)c(OC)c1 [Compound 7] | 112 ± 8.2 | 
12 | 20.3 ± 5.9 | C=CCc1ccc(Oc2cc(CC=C)cc(OC)c2OCC(=O)N2CCCC2)c(OC)c1 [Compound 6] | 52.9 ± 15.2 | 
13 |  | C=CCc1ccc(Oc2cc(CCC)cc(OC)c2O)c(OC)c1 [Compound 18] | 14.2 ± 0.1 | 
14 |  | C=CCc1cc(OC)c(O)c(Oc2ccccc2OC)c1 [Compound 15] | 31.6 ± 11.3 | 
15 |  | C=CCc1cc(OC)cc(Oc2ccc(CC=C)cc2OC)c1 [Compound 8] | > 200 | 
16 | 15.3 ± 1.9 | CCCc1ccc(Oc2cc(CN3CCOCC3)cc(OC)c2OCc2ccc(OC)cc2)cc1 [Compound 34] | > 200 | 
17 |  | C=CCc1cc(OC)c(OCc2ccc(OC)cc2)c(Oc2ccc(CN3CCCC3)cc2OC)c1 [Compound 23] | 6.2 ± 1.2 | 
18 |  | C=CCc1ccc(Oc2cc(CC=C)ccc2OCc2ccc(OC)cc2)c(OC)c1 [Compound 38] | > 200 | 
19 |  | C=CCc1cc(OC)c(OC)c(Oc2ccccc2OC)c1 [Compound 13] | > 200 | 
20 |  | C=CCc1cc(OC)c(O)c(Oc2ccc(CCC)cc2OC)c1 [Compound 17] | 42 ± 3.8 | 

Row | IC50 ([2]; Peritoneal macrophage, 96 h) [µM] | SMILES | CC50 at 96 h [1] [µM] | further results
21 |  | C=CCc1ccc(Oc2cc(CC=C)cc(OC)c2OCc2ccc(OC)cc2)c(OC)c1 [Compound 1] | > 200 | activity against T. cruzi trypomastigotes (T. cruzi trypomastigotes): 4.0 ± 1.4 µM; IC50 (μM) ± SD [2]: inactive
22 |  | C=CCc1ccc(Oc2cccc(OC)c2OC(C)=O)c(OC)c1 [Compound 12] | > 200 | 
23 |  | C=CCc1ccc(Oc2cccc(OC)c2O)c(OC)c1 [Compound 16] | > 200 | 
24 |  | C=CCc1cc(OC)c(OCc2ccc(OC)cc2)c(Oc2ccc(CCC)cc2OC)c1 [Compound 20] | > 200 | 
25 |  | C=CCc1ccc(Oc2cc(CC=C)cc(OC)c2OCOC)c(OC)c1 [Compound 2] | > 200 | 
26 | ~3 | CCCc1cc(OC)c(OCc2ccc(OC)cc2)c(Oc2ccc(CN3CCCCC3)cc2OC)c1 [Compound 26] | 14.5 ± 0.2 | IC50 [2]: 3.7 ± 0.5 µM
27 | 6.5 ± 3 | CCCCCCCCCCCCCCCCOP(=O)([O-])OCC[N+](C)(C)C [Milt., miltefosine, reference compound] | 120 ± 4.2 | 
28 | 26.3 ± 3.2 | CCCc1ccc(Oc2cc(CN3CCOCC3)cc(OC)c2OCc2cc(OC)c(OC)c(OC)c2)c(OC)c1 [Compound 30] | > 200 | 
29 | 32.7 ± 5 | C=CCc1cc(OC)c(OC(C)=O)c(Oc2ccccc2OC)c1 [Compound 11] | > 200 | 
30 |  | CCCc1ccc(OCc2ccc(OC)cc2)c(Oc2ccc(CN3CCOCC3)cc2OC)c1 [Compound 35] | 33.8 ± 4.9 | IC50 (μM) ± SD [2]: inactive
31 | 13.2 ± 2.1 | CCCc1ccc(Oc2cc(CN3CCOCC3)cc(OC)c2OCc2ccc(C(F)(F)F)cc2)c(OC)c1 [Compound 29] | > 200 | 
32 |  | C=CCc1ccc(Oc2cccc(OC)c2OC)c(OC)c1 [Compound 14] | > 200 | 
33 |  | C=CCc1ccc(Oc2cc(CCC)cc(OC)c2OCc2ccc(OC)cc2)c(OC)c1 [Compound 21] | > 200 | 
34 | 27.8 ± 7.4 | COc1ccc(COc2c(OC)cc(CN3CCOCC3)cc2Oc2ccc(CN3CCOCC3)cc2OC)cc1 [Compound 27] | 74.4 ± 5.8 | 
35 |  | C=CCc1cc(OC)c(OC)c(Oc2ccc(CCC)cc2OC)c1 [Compound 19] | > 200 | 
36 |  | C=CCc1cc(OC)c(O)c(Oc2ccc(CN3CCOCC3)cc2OC)c1 [Compound 31] | 51.4 ± 4.7 | IC50 (μM) ± SD [2]: no anti-parasitic activity
37 |  | C=CCc1ccc(Oc2cc(CC=C)cc(OC)c2OCc2ccc(OC)cc2)cc1 [Compound 36] | > 200 | 
38 |  | C=CCc1ccc(Oc2cc(CC=C)cc(OC)c2O)cc1 [Compound 37] | 123 ± 9.4 | 
39 |  | C=CCc1ccc(O)c(Oc2ccc(CC=C)cc2OC)c1 [Compound 39] | 129 ± 5.2 | 
